Measured values: paper PMC5733478, “A Non-imaging High Throughput Approach to Chemical Library Screening at the Unmodified Adenosine-A3 Receptor in Living Cells” (Frontiers in Pharmacology, 2017)

target: T1, human A3AR (Homo sapiens, UniProt P0DMS8); assay: LOPAC library primary screen: single concentration (10 μM) inhibition of 25 nM CA200645 binding, PHERAstar FS; settings: not given
T1 construct: expressed in transfected cells
T1 sequence (P0DMS8 1-318): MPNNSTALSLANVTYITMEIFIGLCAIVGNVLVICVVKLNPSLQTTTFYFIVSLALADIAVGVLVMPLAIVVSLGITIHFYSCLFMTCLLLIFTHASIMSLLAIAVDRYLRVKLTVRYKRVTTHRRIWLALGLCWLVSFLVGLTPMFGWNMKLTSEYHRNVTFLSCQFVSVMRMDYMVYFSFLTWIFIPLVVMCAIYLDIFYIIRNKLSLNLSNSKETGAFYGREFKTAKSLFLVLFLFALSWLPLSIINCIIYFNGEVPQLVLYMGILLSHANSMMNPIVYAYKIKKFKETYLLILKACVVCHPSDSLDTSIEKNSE

Molecule	% 25 nM CA200645 binding
C=CCn1c(=O)c2c(nc(-c3ccc(S(=O)(=O)O)cc3)n2C)n(C)c1=O	97.5 ± 9.3%
Cl.NC1(C(=O)O)CCCCC1	108.3 ± 1.1%
Cl.NC1(C(=O)O)CC1	88.3 ± 14.5%
Clc1ccc(C(c2ccccc2Cl)C(Cl)Cl)cc1 (stereo not shown)	87.8 ± 23.1%
COc1ccccc1N1CCNCC1.Cl	114.8 ± 8.3%
COc1ccc2c(c1)c(CC(=O)O)c(C)n2Cc1ccc(Cl)cc1	97.1 ± 10.6%
CC1CN(S(=O)(=O)c2cccc3cnccc23)CCN1.Cl.Cl (stereo not shown)	95.4 ± 14.7%
COc1ccc2c(c1)c(CC(=O)O)c(C)n2C(=O)c1ccccc1	59.0 ± 9.2%
C[N+]1(C)CCN(c2ccccc2)CC1.[I-]	102.6 ± 13.3%
CCCc1c(-c2ccc(O)cc2)nn(-c2ccc(O)cc2)c1-c1ccc(O)cc1	35.7 ± 9.6%
Cl.NCC(O)C1CCCCCCC1 (stereo not shown)	94.5 ± 6.6%
CSc1nc(N)c2ncn([C@@H]3O[C@H](COP(=O)([O-])OP(=O)([O-])OP(=O)([O-])[O-])[C@@H](O)[C@H]3O)c2n1.[Na+].[Na+].[Na+].[Na+]	99.0 ± 0.7%
Br.Br.N=C(N)SCCN	91.5 ± 12.4%
CSc1nc(N)c2ncn([C@@H]3O[C@H](COP(=O)([O-])OP(=O)([O-])[O-])[C@@H](O)[C@H]3O)c2n1.O.[Na+].[Na+].[Na+]	100.3 ± 5.3%
NC(=O)COc1c(F)cc(SCCNS(=O)(=O)c2ccccc2)cc1F	109.8 ± 13.1%
CN1C2CCC1CC(OC(=O)c1c[nH]c3ccccc13)C2.Cl (stereo not shown)	109.6 ± 9.2%
C[N+]1(C)C2CCC1CC(OC(=O)c1c[nH]c3ccccc13)C2.[I-] (stereo not shown)	95.6 ± 4.9%
Cl.Fc1ccc(C(OCCCc2c[nH]cn2)c2ccc(F)cc2)cc1	99.1 ± 1.1%
Cl.N=C(N)c1ccc(CS(=O)(=O)F)cc1	98.9 ± 8.1%
O=C(O)c1cc([N+](=O)[O-])ccc1NCCCc1ccccc1	120.8 ± 13.5%
Cc1ccc(S(=O)(=O)O)cc1.NC[C@H]1O[C@@H](n2cnc3c(N)ncnc32)[C@H](O)[C@@H]1O	85.5 ± 26.7%
COc1ccc2[nH]c3c(c2c1)CCNC3	93.4 ± 1.1%
Cc1cccc(C#Cc2ccccc2)n1.Cl	95.8 ± 6.2%
Oc1cc(-c2ccccc2)nc2nc(Cl)ccc12	77.8 ± 8.8%

Molecule	% 25 nM CA200645 binding
Nc1ncnc2c1c(-c1ccc(Oc3ccccc3)cc1)cn2C1CCCC1	58.8 ± 13.2%
COCc1nc2c([nH]1)c(=O)n(C)c(=O)n2CC(C)C	99.2 ± 10.1%
Cl.Nc1c2c(nc3ccccc13)CCCC2	100.2 ± 15.6%
C[C@H]1CCC/C=C/[C@@H]2C[C@H](O)C[C@H]2[C@H](O)/C=C/C(=O)O1	87.5 ± 5.2%
C[N+](C)(C)CCOP(=O)([O-])OP(=O)([O-])OC[C@H]1O[C@@H](n2ccc(N)nc2=O)[C@H](O)[C@@H]1O.[Na+]	102.5 ± 15.7%
Cl.Nc1ccn([C@@H]2O[C@H](CO)[C@@H](O)[C@@H]2O)c(=O)n1	98.1 ± 3.7%
Br.COc1ccc2c(c1)[C@]13CCCC[C@@H]1[C@H](C2)N(C)CC3.O	102.0 ± 12.4%
NC(N)=Nc1ccc2[nH]c3c(c2c1)C[C@@]1(O)[C@H]2Cc4ccc(O)c5c4[C@@]1(CCN2CC1CC1)[C@H]3O5.O=C(O)C(F)(F)F.O=C(O)C(F)(F)F	93.9 ± 7.0%
Cl.O[Si](CCCN1CCCCC1)(c1ccc(F)cc1)C1CCCCC1 (stereo not shown)	104.8 ± 7.7%
C[C@@H](N)Cc1cnc[nH]1.Cl.Cl	98.7 ± 8.4%
COC(=O)[C@@H](N)Cc1ccc(O)c(O)c1.Cl	98.6 ± 13.3%
COc1cccc(C(=O)NCCN2CCN(c3ccc(Cl)cc3)CC2)c1	94.3 ± 6.0%
CNCCc1c[nH]c2ccc(O)cc12.O=C(O)C(=O)O	111.6 ± 33.8%
Cc1ccc(S(=O)(=O)N[C@@H](Cc2ccccc2)C(=O)CCl)cc1	102.0 ± 13.7%
COC(=O)[C@@H](N)CCCN=C(N)N[N+](=O)[O-].Cl	109.0 ± 16.7%
CCCCCCN(CCCCCC)C(=O)Cc1c(-c2ccc(F)cc2)[nH]c2ccccc12	88.5 ± 10.2%
CC(Cc1ccc(O)c(O)c1)C(C)Cc1ccc(O)c(O)c1 (stereo not shown)	79.3 ± 28.3%
Br.CCCN1CCc2cc(O)cc3c2[C@H]1Cc1ccc(O)c(O)c1-3	89.0 ± 14.4%
Br.CN1CCc2cc(O)cc3c2[C@H]1Cc1ccc(O)c(O)c1-3	83.0 ± 14.1%
N[C@H](C(=O)O)[C@H]1C[C@@H]1C(=O)O	107.7 ± 15.6%
C[C@H](O)[C@H](O)[C@H]1CNc2nc(N)[nH]c(=O)c2N1.Cl	101.6 ± 17.7%
CC[C@@H]1Cc2cc(O)ccc2C2=C1c1ccc(O)cc1C[C@H]2CC	85.9 ± 6.0%
Nc1ncnc2c1ncn2[C@@H]1O[C@H](COP(=O)(O)CP(=O)(O)OP(=O)([O-])[O-])[C@H](O)C1O.[Li+].[Li+] (stereo partly shown)	102.3 ± 5.3%
CCCCCCC(C(C)O)n1cnc2c(N)ncnc21.Cl (stereo not shown)	80.7 ± 17.0%

Molecule	% 25 nM CA200645 binding
17alpha-hydroxyprogesterone	104.8 ± 10.6%
10058-F4	75.9 ± 8.5%
Cl.NCCC[C@](N)(C(=O)O)C(F)F (racemic)	103.2 ± 12.1%
COC(=O)C(N)Cc1ccc(Cl)cc1.Cl (racemic)	95.7 ± 6.7%
CC(N)c1cccc(Cl)c1Cl.Cl (racemic)	100.4 ± 9.9%
CC(N)(Cc1ccc(O)c(O)c1)C(=O)O (racemic)	86.8 ± 7.1%
CCCCCCCCCC(=O)NC(CN1CCOCC1)[C@H](O)c1ccccc1.Cl (mixture of isomers)	98.6 ± 11.0%
COC(=O)C(C)(N)Cc1ccc(O)cc1.Cl (racemic)	108.9 ± 8.2%
NC(Cc1cc(O)c(O)cc1O)C(=O)O (racemic) [6-Hydroxy-DL-DOPA]	69.7 ± 9.9%
NC(CP(=O)(O)O)C(=O)O (racemic) [(±)-2-Amino-3-phosphonopropionic acid]	96.0 ± 3.9%
NC(CCP(=O)(O)O)C(=O)O (racemic) [(±)-2-Amino-4-phosphonobutyric acid]	99.9 ± 8.9%
NC(CCCCCP(=O)(O)O)C(=O)O (racemic) [(±)-2-Amino-7-phosphonoheptanoic acid]	52.2 ± 10.8%
Br.Oc1cc2c(c(Cl)c1O)CCNCC2c1ccccc1 (racemic) [(±)-6-Chloro-PB hydrobromide]	99.3 ± 4.1%
Br.CCCN(CCC)C1CCc2ccc(O)cc2C1 (racemic) [(±)-7-Hydroxy-DPAT hydrobromide]	98.0 ± 1.6%
Br.CCCN(CCC)C1CCc2cccc(O)c2C1 (racemic) [(±)-8-Hydroxy-DPAT hydrobromide]	98.2 ± 1.8%
Br.Cc1o[nH]c(=O)c1CC(N)C(=O)O (racemic) [(±)-AMPA hydrobromide]	96.2 ± 10.6%
CC1CCN=C(N)S1.Cl (racemic) [(±)-AMT hydrochloride]	100.6 ± 12.5%
NCC(CC(=O)O)c1ccc(Cl)cc1 (racemic) [(±)-Baclofen]	99.6 ± 6.9%
COC(=O)C1=C(C)NC(C)=C([N+](=O)[O-])C1c1ccccc1C(F)(F)F (racemic) [(±)-Bay K 8644]	95.3 ± 3.4%
CN(C)CCC(c1ccc(Br)cc1)c1ccccn1.O=C(O)/C=C\C(=O)O (racemic) [(±)-Brompheniramine maleate]	101.5 ± 4.3%
CC(C)(C)NCC(O)COc1cccc2[nH]c(=O)[nH]c12.Cl (racemic) [(±)-CGP-12177A hydrochloride]	114.1 ± 10.3%
O=C(O)C1CN(CCCP(=O)(O)O)CCN1 (racemic) [(±)-CPP]	97.2 ± 1.5%
CN(C)CCC(c1ccc(Cl)cc1)c1ccccn1.O=C(O)/C=C\C(=O)O (racemic) [(±)-Chlorpheniramine maleate]	99.2 ± 9.9%

same assay, conditions: % of control wells (1% DMSO and 25 nM CA200645); compounds at 10 µM; whole live cells expressing the A3AR; mean ± SD, three experiments in duplicate

Molecule	% 25 nM CA200645 binding
CCOC(=O)[C@]12CC1/C(=N\O)c1ccccc1O2 (mixture of isomers) [CPCCOEt]	88.3 ± 3.9%

same assay, conditions: compounds tested at 10 µM; % of control wells (1% DMSO and 25 nM CA200645); whole live cells expressing the A3AR; mean ± SD, three experiments in duplicate

Molecule	% 25 nM CA200645 binding
NC(CCCP(=O)(O)O)C(=O)O (racemic) [(±)-2-Amino-5-phosphonopentanoic acid]	90.8 ± 6.2%
